Data on four molecules can be found in patent US20060073528A1, “Measurement methods” (priority 2004, published 2006).

A short description of series [1]: Lyophilized standard stocks reconstituted and analyzed by Hisep RP-HPLC (monomer to dimer conversion). The series is classed as physicochemical. Particulars: for Dimer area observed / Monomer area observed: single injections. The method, then:
All vials contained a total of 15 nmol. Two vials of each standard were reconstituted by adding 150 μL of 50% acetonitrile/0.01% TFA to make a 100 μM stock solution; the remaining vials were reconstituted with 300 μL to make 50 μM stocks. The stocks were further diluted to the working concentration of 5 μm and analyzed. […] The stability of these standards were monitored over time.

Series [2] is described as follows: Sample stability of DM1-related impurities with DS-DM1-deJ591 in the autosampler (Hisep RP-HPLC).
Description: The sample was analyzed at times t=0 h, 12 h, and 24 h. Sample stability was determined by comparing the area percent (area %) values of the stored sample to that of the initially-prepared solution (t=0 h).
Where [3] appears, read: 50 μM stock - lyophilized, average per vial.
[4] abbreviates: 100 μM stock - lyophilized, average per vial.
Where [5] appears, read: 100 μM stock - lyophilized, vials 1 and 2.

Molecules are shown by their SMILES. Where “and” joins values, the source holds several entries; their conditions need not be identical. Equal values may be shown once. Read-outs that look alike come from different tables or passages of the source.

As to `COc1cc2cc(c1Cl)N(C)C(=O)C[C@H](OC(=O)[C@H](C)N(C)C(=O)CCS)[C@]1(C)O[C@H]1[C@H](C)[C@@H]1C[C@@](O)(NC(=O)O1)[C@H](OC)/C=C/C=C(\C)C2` [DM1 monomer], in series [1] (15 nmol vials lyophilized, reconstituted in 50% acetonitrile/0.01% TFA to 100 μM or 50 μM, diluted to 5 μM), the “DM1 monomer to dimer conversion after lyophilization” value is “significant DM1 monomer→dimer conversion”. In addition, the “Dimer area observed, Average” value in series [1] (setting [3]) is 10669; in series [1] (setting [4]) it was 10086 and 10158. The “Monomer area observed, Average” value was 476235 and 412633 in series [1] (setting [3]); 391081 and 417523 in series [1] (setting [4]); 459843 in series [1] (100 μM stock - untreated). The Dimer area observed in series [1] (50 μM stock - lyophilized) is 10097 and 10809 and 11100; in series [1] (setting [5]), 10508 and 8635 and 11114 and 10029 and 10666 and 9780. Further, the Monomer area observed is 476970 and 475075 and 476660 and 415292 and 411974 and 410632 in series [1] (50 μM stock - lyophilized, vials 1 and 2); 392043 and 391526 and 389675 and 418902 and 418204 and 415463 in series [1] (setting [5]); 459407 and 460238 and 459885 in series [1] (100 μM stock - untreated). In addition, the figures for the Average peak area in series [2] (t = 0 h), in series [2] (t = 12 h) and in series [2] (t = 24 h) were 223667, 217293 and 214265, respectively.
With `COc1cc2cc(c1Cl)N(C)C(=O)CC(OC(=O)C(C)N(C)CC(=O)CCSSC(C)CCC(=O)O)C1(C)OC1C(C)C1CC(O)(NC(=O)O1)C(OC)C=CC=C(C)C2` (stereo not shown) [DM1-TPA adduct, DM1-thiopentanoic acid adduct], the Average peak area in series [2] (t = 0 h) worked out at 246302; in series [2] (t = 12 h) it was 245410; in series [2] (t = 24 h) it was 245126.
`S=c1cccc[nH]1` [mercaptopyridine]: the Average peak area in series [2] (t = 0 h) is reported as 15446; in series [2] (t = 12 h), 15654; in series [2] (t = 24 h), 15620.
`CC(CCC(=O)O)SSc1ccccn1` (stereo not shown) [PPA, 4-(2-pyridyldithio) pentanoic acid]: the “% remaining area counts relative to t = 0 h” value is recorded as 96.83% (12 h) and 98.20% (24 h). For the same molecule, the Average peak area was found to be 15881 in series [2] (t = 0 h), 15377 in series [2] (t = 12 h) and 15595 in series [2] (t = 24 h).
